Data taken from ChEMBL document CHEMBL1157309, “Sensitivity of cardiac background inward rectifying K+ outward current (IK1) to the alkaloids lepadiformines A, B, and C” (J Nat Prod, 2006).
pKd: −log10 of the molar value. Counter-ions that a name gives are not always drawn. Activity calls are given as the source filed them. No cut-off for these calls is given here.

Key:
[1] = system: Pelophylax lessonae; assay: Inhibition of Kir channel in frog sino-atrial myocytes assessed as blockade of barium and caesium-sensitive inward rectifying potassium outward current potential at 2.5 uM by whole cell patch clamp method; assay type: cell-based; conditions: Cardiac atrium
[2] = system: Pelophylax lessonae; assay: Inhibition of Kir channel in frog sino-atrial myocytes assessed as blockade of barium and caesium-sensitive inward rectifying potassium outward current potential at 3.3 uM by whole cell patch clamp method; assay type: cell-based; conditions: Cardiac atrium
[3] = Inhibition of Kir channel in frog sino-atrial myocytes assessed as half-maximal response for blockade of barium and caesium-sensitive inward rectifying potassium outward current by whole cell patch clamp method; assay type: cell-based, Pelophylax lessonae, Cardiac atrium
[4] = system: Pelophylax lessonae; assay: Inhibition of Kir channel in frog sino-atrial myocytes assessed as blockade of barium and caesium-sensitive inward rectifying potassium outward current potential at 4.1 uM by whole cell patch clamp method; assay type: cell-based; conditions: Cardiac atrium
[5] = system: Pelophylax lessonae; assay: Inhibition of Kir channel in frog sino-atrial myocytes assessed as blockade of barium and caesium-sensitive inward rectifying potassium outward current at 1.6 uM by whole cell patch clamp method; assay type: cell-based; conditions: Cardiac atrium
[6] = system: Pelophylax lessonae; assay: Inhibition of Kir channel in frog sino-atrial myocytes assessed as blockade of barium and caesium-sensitive inward rectifying potassium outward current by whole cell patch clamp method; assay type: cell-based; conditions: Cardiac atrium

SMILES	inhibition [1]	Activity [2]	pKd [3]	Activity [4]	Activity [5]	Activity [6]
CCCC[C@@H]1CC[C@@H]2CCCC[C@]23CCCN13	8.4%	inactive				
CCCC[C@@H]1CC[C@@H]2CCCC[C@]23CC[C@@H](CO)N13 [LEPADIFORMINE B HYDROCHLORIDE]	54%		5.81	Active		
CCCCCC[C@@H]1CC[C@@H]2CCCC[C@]23CC[C@@H](CO)N13 [LEPADIFORMINE A HYDROCHLORIDE]			5.85		Active	Dose-dependent effect
